Reference: US9051351B2, “Hepatocyte growth factor mimics as therapeutic agents” (Washington State University, priority 2011, dated 2015)
Where a SMILES comes first, the peptide text is derived from it. [ ]: non-standard residue; d: D form. The star is where a group is joined. Hexanoyl = CCCCCC(=O)*; Ahx = NCCCCCC(=O)O

Key:
[1] = tested on: hippocampal neurons; assay: Dendritic spine counts (spinogenesis) in mRFP-β-actin transfected dissociated hippocampal neurons; assay type: cell-based, rat
[2] = tested on: hippocampal neurons; assay: Immunocytochemistry: percent correlation of spines to synaptic markers; assay type: cell-based, rat; conditions: 10^−12 M, 5 days
Description: (§1) Transfected neurons were treated, fixed and stained. Briefly, cells were permeablized with 0.1% Triton X-100 detergent (Bio-Rad; Hercules, Calif.) for 10 minutes. An 8% bovine serum albumin (Intergen Company; Burlington, Mass.) in PBS was used to prevent non-specific binding for one hour at R.T.; Primary antibody incubations were at a 1:2500 dilution (see below) in 1% BSA in PBS at 4° C. overnight. Secondary antibody, 1:3000 Alexafluor 488 goat-anti-mouse (Invitrogen: Carlsbad, Calif.) was applied for two hours at room temperature. Coverslips were mounted with ProLong Gold anti-fade reagent (Invitrogen; Carlsbad, Calif.) and all washes were done with PBS. Imaging and analysis were performed as described above. For presynaptic excitatory transmission the VGLUT1 (Synaptic Systems, Goettingen, Germany) marker (Balschun, Moechars et al.) was employed and for general presynaptic transmission synapsin1 (Synaptic Systems, Goettingen, Germany) (Ferreira and Rapoport 2002) was applied. A postsynaptic function was established by PSD-95 (Milipore, Billerica, Mass.) (El-Husseini, Schnell et al. 2000). In each instance the total number of spines was counted for the treatment groups, control, Nle1-AngIV and Dihexa, to ensure an active phenotype. The total number of actin enriched spines adjacent to VGLUT1 or Synapsin were counted and converted to a percentage as the percent correlation of treatment-induced spines to presynaptic markers is a strong indicator of ability to transmit excitatory signals.
as §1, with “fixed and stained as previously described in Chapter two. Briefly, cells” for “fixed and stained. Briefly, cells”, “enriched spines (red) adjacent to” for “enriched spines adjacent to”
Transfected neurons were treated and fixed as described above. Following fixation, cells were rinsed in PBS and permeabilized with 0.1% Triton® X-100 detergent (Bin-Rad; Hercules, Calif.), followed by two rinses in PBS and blocked with 8% bovine serum albumin (Intergen Company; Burlington, Mass.) in PBS for 1 h. […]

[3] = Blood-brain barrier penetrability study; assay type: in vivo, rat; conditions: carotid infusion, 30 minutes
Description: To evaluate the of ability dihexa to penetrate the BBB and accumulate in the brain rats were fitted with carotid cannulas and infused with 10 μCi of ^3H-dihexa and 2 μCi of ^14C inulin, a vascular space marker, in 100 μL of isotonic saline. Thirty minutes after infusion, brains were removed and dissected and blood samples taken. After solubilization, ^3H and ^14C were quantified by dual window scintillation counting to determine the amount of dihexa and inulin in brain and blood samples. The ratio of dihexa/inulin in blood was then used to account for any blood contamination in the various brain regions.

CCCCCC(=O)N[C@@H](Cc1ccc(O)cc1)C(=O)N[C@H](C(=O)NCCCCCC(N)=O)[C@@H](C)CC [Dihexa, N-hexanoic-Tyr-Ile-(6)-aminohexanoic amide] (Hexanoyl-Tyr-Ile-[Ahx]-NH2)
increase in the number of spines ([1]; 10^−12 M, 5 day treatment, vs vehicle): ~3 fold | mean spine numbers per 50 μm dendrite length ([1]; 10^−12 M, acute 30 minute application on DIV12): 23.9 spines per 50 μm dendrite leng | mean spine numbers per 50 μm dendrite length ([1]; neurons transfected with mRFP-β-actin alone, HGF 10 ng/ml, Dihexa or Nle1-AngIV 10^−12 M, 48 hours): 21.8 spines per 50 μm dendrite leng | mean spine numbers per 50 μm dendrite length ([1]; neurons transfected with mRFP-β-actin and shMet (c-Met knock-down), HGF 10 ng/ml, Dihexa or Nle1-AngIV 10^−12 M): 12.0 spines per 50 μm dendrite leng | percent correlation of treatment-induced spines to VGLUT1, Synapsin or PSD-95 vs control [2]: did not differ from control treated neurons in the percent correlation | Number of spines/50 μm ([2]; PSD-95 study): 43 spines/50 μm | Number of spines/50 μm ([2]; Synapsin study): 37 spines/50 μm | Number of spines/50 μm ([2]; VGLUT1 study): 44 spines/50 μm | average 3H/14C for blood [3]: 1687 | concentration of 3H-dihexa in brain regions (3H/14C ratio vs blood) ([3]; 14C-inulin vascular marker): all the brain regions examined avidly concentrated dihexa
